{"source": "paper PMC7849180", "about": "(Frontiers in Pharmacology, 2020)", "key": {"[1]": {"system": "cells transformed by selected oncogenic mutants of tyrosine kinases", "assay": "Inhibition of transformed cells", "assay_type": "cell-based"}, "[2]": {"assay": "PK, single intragastric dose", "assay_type": "in vivo, rats", "procedure": "(§1) Suzhou Zelgen Biopharmaceuticals Co., Ltd. Jaktinib Hydrochloride Tablets Chemical Drug Class 1 New Drug […]\nGender Tma x Cma x AUC0-t AUC0-∞ MRT t1/2 […]\nPharmacokinetic Study of Single-Dose Intragastric Administration in […]\nAfter a single intragastric administration of 15.3, 30.5 and 61 mg/kg of ZG0128 […]\ndrug in three dose groups were 5.74, 8.33 and 12.4 μg/mL, respectively. […]\nZG0245 was lower than the proportional increase in dose, the increase in the AUC0-t of ZG0163 was directly proportional to the increase in dose, and the increase in the AUC0-t of the metabolite ZG0245 was slightly higher than the proportional increase in dose. Based on the average value of AUC0-t, the absolute bioavailability of the drug in rats receiving a single intragastric administration of 15.3 mg/kg of […] was 40.0%. […]"}, "[3]": {"system": "myeloproliferative neoplasm", "assay": "JAK2V617F transgenic mouse model", "assay_type": "in vivo, JAK2V617F transgenic mice", "details": "100 mg/kg daily oral gavage, 4 weeks", "procedure": "as §1\ncells at a concentration of 1 μM. […]\neffectively affect the primary cells harboring the JAK2V617F mutation in patients with […]\nIn Vivo Pharmacodynamic Study of ZG0128 in Mouse Model of Myeloproliferative Neoplasm\nPrimary myelofibrosis (PMF) is characterized by the formation of bone marrow fibrous tissues (scar-like) caused by the abnormal proliferation of three types of cells (platelets, white blood cells, and red blood cells). At present, there is still no particularly effective treatment for these diseases. JAKV617F transgenic mice and JAK2V617F bone marrow transplanted mice can develop the pathological characteristics of myeloproliferative neoplasm, which can be used to effectively evaluate the efficacy of drugs used in the treatment of myeloproliferative neoplasms.\nHCD-57-JAK2V617F cells were intravenously injected into NSG mice. Three weeks later, the mice were injected intraperitoneally with a single dose of 200 mg/kg of compound ZG0128, and euthanized 4 h after drug administration. The results of […]\nThe ability of compound ZG0128 and its positive control drug ZG0192 to inhibit the pathological characteristics of myeloproliferative tumors (MPNs) was evaluated in a JAK2V617F bone marrow transplanted mouse model. […]"}}}
{"molecule": "Jaktinib", "values": [{"measurement": "IC50", "setting": "[1]", "result": 100, "unit": "nM"}, {"measurement": "AUC0-t", "setting": "[2]; 15.3 mg/kg ZG0128, Female", "result": "19400 ± 7500", "unit": "ng·h/mL"}, {"measurement": "AUC0-∞", "setting": "[2]; 15.3 mg/kg ZG0128, Female", "result": "19400 ± 7500", "unit": "ng·h/mL"}, {"measurement": "Cmax", "setting": "[2]; 15.3 mg/kg ZG0128, Female", "result": "4820 ± 1250", "unit": "ng/mL"}, {"measurement": "MRT", "setting": "[2]; 15.3 mg/kg ZG0128, Female", "result": "2.82 ± 0.60", "unit": "h"}, {"measurement": "Tmax", "setting": "[2]; 15.3 mg/kg ZG0128, Female", "result": "0.5 (0.5-1.0) h"}, {"measurement": "t1/2", "setting": "[2]; 15.3 mg/kg ZG0128, Female", "result": "0.93 ± 0.26", "unit": "h"}, {"measurement": "AUC0-t", "setting": "[2]; 15.3 mg/kg ZG0128, Male", "result": "24500 ± 11300", "unit": "ng·h/mL"}, {"measurement": "AUC0-∞", "setting": "[2]; 15.3 mg/kg ZG0128, Male", "result": "24600 ± 11300", "unit": "ng·h/mL"}, {"measurement": "Cmax", "setting": "[2]; 15.3 mg/kg ZG0128, Male", "result": "6660 ± 2130", "unit": "ng/mL"}, {"measurement": "MRT", "setting": "[2]; 15.3 mg/kg ZG0128, Male", "result": "2.45 ± 0.29", "unit": "h"}, {"measurement": "Tmax", "setting": "[2]; 15.3 mg/kg ZG0128, Male", "result": "1.0 (0.5-2.0) h"}, {"measurement": "t1/2", "setting": "[2]; 15.3 mg/kg ZG0128, Male", "result": "0.84 ± 0.20", "unit": "h"}, {"measurement": "AUC0-t", "setting": "[2]; 15.3 mg/kg ZG0128, Overall", "result": 21900, "unit": "ng·h/mL"}, {"measurement": "AUC0-∞", "setting": "[2]; 15.3 mg/kg ZG0128, Overall", "result": "22000 ± 9000", "unit": "ng·h/mL"}, {"measurement": "Cmax", "setting": "[2]; 15.3 mg/kg ZG0128, Overall", "result": 5740, "unit": "ng/mL"}, {"measurement": "MRT", "setting": "[2]; 15.3 mg/kg ZG0128, Overall", "result": "2.63 ± 0.47", "unit": "h"}, {"measurement": "Tmax", "setting": "[2]; 15.3 mg/kg ZG0128, Overall", "result": "0.75 (0.5-2.0) h"}, {"measurement": "t1/2", "setting": "[2]; 15.3 mg/kg ZG0128, Overall", "result": "0.89 ± 0.21", "unit": "h"}, {"measurement": "absolute bioavailability", "setting": "[2]; 15.3 mg/kg, by AUC0-t", "result": 40.0, "unit": "%"}, {"measurement": "AUC0-t", "setting": "[2]; 30.5 mg/kg ZG0128, Female", "result": "39900 ± 13600", "unit": "ng·h/mL"}, {"measurement": "AUC0-∞", "setting": "[2]; 30.5 mg/kg ZG0128, Female", "result": "40200 ± 13200", "unit": "ng·h/mL"}, {"measurement": "Cmax", "setting": "[2]; 30.5 mg/kg ZG0128, Female", "result": "9680 ± 3400", "unit": "ng/mL"}, {"measurement": "MRT", "setting": "[2]; 30.5 mg/kg ZG0128, Female", "result": "3.46 ± 0.75", "unit": "h"}, {"measurement": "Tmax", "setting": "[2]; 30.5 mg/kg ZG0128, Female", "result": "2.0 (2.0) h"}, {"measurement": "t1/2", "setting": "[2]; 30.5 mg/kg ZG0128, Female", "result": "2.07 ± 2.24", "unit": "h"}, {"measurement": "AUC0-t", "setting": "[2]; 30.5 mg/kg ZG0128, Male", "result": "41600 ± 19700", "unit": "ng·h/mL"}, {"measurement": "AUC0-∞", "setting": "[2]; 30.5 mg/kg ZG0128, Male", "result": "43200 ± 21900", "unit": "ng·h/mL"}, {"measurement": "Cmax", "setting": "[2]; 30.5 mg/kg ZG0128, Male", "result": "6970 ± 1150", "unit": "ng/mL"}, {"measurement": "MRT", "setting": "[2]; 30.5 mg/kg ZG0128, Male", "result": "3.95 ± 1.68", "unit": "h"}, {"measurement": "Tmax", "setting": "[2]; 30.5 mg/kg ZG0128, Male", "result": "1.0 (1.0-2.0) h"}, {"measurement": "t1/2", "setting": "[2]; 30.5 mg/kg ZG0128, Male", "result": "1.58 ± 0.75", "unit": "h"}, {"measurement": "AUC0-t", "setting": "[2]; 30.5 mg/kg ZG0128, Overall", "result": 40800, "unit": "ng·h/mL"}, {"measurement": "AUC0-∞", "setting": "[2]; 30.5 mg/kg ZG0128, Overall", "result": "41700 ± 16200", "unit": "ng·h/mL"}, {"measurement": "Cmax", "setting": "[2]; 30.5 mg/kg ZG0128, Overall", "result": 8330, "unit": "ng/mL"}, {"measurement": "MRT", "setting": "[2]; 30.5 mg/kg ZG0128, Overall", "result": "3.70 ± 1.19", "unit": "h"}, {"measurement": "Tmax", "setting": "[2]; 30.5 mg/kg ZG0128, Overall", "result": "2.0 (1.0-2.0) h"}, {"measurement": "t1/2", "setting": "[2]; 30.5 mg/kg ZG0128, Overall", "result": "1.82 ± 1.52", "unit": "h"}, {"measurement": "AUC0-t", "setting": "[2]; 61 mg/kg ZG0128, Female", "result": "82700 ± 31000", "unit": "ng·h/mL"}, {"measurement": "AUC0-∞", "setting": "[2]; 61 mg/kg ZG0128, Female", "result": "87300 ± 31000", "unit": "ng·h/mL"}, {"measurement": "Cmax", "setting": "[2]; 61 mg/kg ZG0128, Female", "result": "12100 ± 2600", "unit": "ng/mL"}, {"measurement": "MRT", "setting": "[2]; 61 mg/kg ZG0128, Female", "result": "4.87 ± 1.22", "unit": "h"}, {"measurement": "Tmax", "setting": "[2]; 61 mg/kg ZG0128, Female", "result": "4.0 (1.0-6.0) h"}, {"measurement": "t1/2", "setting": "[2]; 61 mg/kg ZG0128, Female", "result": "2.14 ± 0.31", "unit": "h"}, {"measurement": "AUC0-t", "setting": "[2]; 61 mg/kg ZG0128, Male", "result": "124000 ± 58000", "unit": "ng·h/mL"}, {"measurement": "AUC0-∞", "setting": "[2]; 61 mg/kg ZG0128, Male", "result": "124000 ± 58000", "unit": "ng·h/mL"}, {"measurement": "Cmax", "setting": "[2]; 61 mg/kg ZG0128, Male", "result": "12800 ± 1700", "unit": "ng/mL"}, {"measurement": "MRT", "setting": "[2]; 61 mg/kg ZG0128, Male", "result": "6.20 ± 2.52", "unit": "h"}, {"measurement": "Tmax", "setting": "[2]; 61 mg/kg ZG0128, Male", "result": "2.0 (2.0-8.0) h"}, {"measurement": "t1/2", "setting": "[2]; 61 mg/kg ZG0128, Male", "result": "1.56 ± 0.59", "unit": "h"}, {"measurement": "AUC0-t", "setting": "[2]; 61 mg/kg ZG0128, Overall", "result": 103000, "unit": "ng·h/mL"}, {"measurement": "AUC0-∞", "setting": "[2]; 61 mg/kg ZG0128, Overall", "result": "106000 ± 46000", "unit": "ng·h/mL"}, {"measurement": "Cmax", "setting": "[2]; 61 mg/kg ZG0128, Overall", "result": 12400, "unit": "ng/mL"}, {"measurement": "MRT", "setting": "[2]; 61 mg/kg ZG0128, Overall", "result": "5.54 ± 1.92", "unit": "h"}, {"measurement": "Tmax", "setting": "[2]; 61 mg/kg ZG0128, Overall", "result": "3.0 (1.0-8.0) h"}, {"measurement": "t1/2", "setting": "[2]; 61 mg/kg ZG0128, Overall", "result": "1.85 ± 0.53", "unit": "h"}, {"measurement": "Tmax, range over doses", "setting": "[2]; 15.3, 30.5 and 61 mg/kg ZG0128", "result": "0.75 to 3.0", "unit": "h"}, {"measurement": "plasma elimination half-life t1/2, range over doses", "setting": "[2]; 15.3, 30.5 and 61 mg/kg ZG0128", "result": "0.89 to 1.85", "unit": "h"}]}
{"molecule": "Cl.Cl.O.[2H]C1([2H])COCC([2H])([2H])N1c1ccc(Nc2nccc(-c3ccc(C(=O)NCC#N)cc3)n2)cc1", "note": "[ZG0128, Jaktinib Dihydrochloride Monohydrate]", "values": [{"measurement": "counts of three types of blood cells and spleen volume", "setting": "[3]", "result": "significant decrease"}]}
